In patent publication EP4813463A2, “TYK2 INHIBITORS AND COMPOSITIONS AND METHODS THEREOF” (Lynk Pharmaceuticals Co. Ltd., priority 2023, dated 2024):

How the values were obtained:
[1] = Brain pharmacokinetic studies in dogs; assay type: in vivo, Beagle dogs; conditions: for AUC / Kp: Beagle dogs, iv, 2 mg/kg, solution; for AUC: AUC0-4h; for Kp: read-out: Brain AUC/Systemic AUC; for brain exposure in Dogs: result in words
Experimental: Pharmacokinetic profiles of test articles were evaluated in Beagle dogs. Different kinds of formulations were designed to ensure test articles fully dissolved and wouldn't precipitate in 1:10 SGF or FaSSIF dilution. The animal was restrained manually at the designated time points, approximately 500 µL of blood sample was collected via cephalic vein into K2EDTA tubes. The blood samples were maintained in wet ice first and centrifuged to obtain plasma (2000g, 4°C, 5 min) within 15 minutes post sampling. The animal was euthanized with pure […] inhalation. Shave the hair on the back of head and neck, and clean the skin of the area with iodine and 75% ethanol. Inject about 4-5 L saline from carotid artery for perfusion. Brain was collected after the perfusion fluid (saline) was gradually clarified. Dry the tissue on filtrate paper on ice, and then weigh the brain tissue and store at -70°C for later analysis. […] Table 15. Systemic Pharmacokinetic Parameters in Beagle Dogs

[2] = Brain pharmacokinetic studies in rats; assay type: in vivo, Sprague-Dawley rats; conditions: for half-life / Kp / AUC: rats, iv, 3 mg/kg, solution; for Kp: read-out: Brain AUC/Systemic AUC; for brain exposure in Rats: result in words
Experimental: Pharmacokinetic profiles of test articles were evaluated in fasted Sprague-Dawley rats. Different kinds of formulations were designed to ensure test articles fully dissolved and wouldn't precipitate in 1:10 SGF or FaSSIF dilution. Typically, Rats were dosed with 3 mg/kg and 5 mg/kg by intravenous injection and oral gavage, respectively. The animal was restrained manually at the designated time points, approximately 150 µL of blood sample was collected via jugular vein for serial bleeding into K2EDTA tubes. The blood samples were maintained in wet ice first and centrifuged to obtain plasma (2000g, 4°C, 5 min) within 30 minutes post sampling. Anesthetizing the rat with the Isoflurane vaporizer to 2%~3% and place its back on the operation table. Spread the animal limbs and pin the limbs on the operation table. Make a cut along the sternum about 4cm long, low enough to expose the sternum's end. Expose the heart and use a 25-gauge needle connected with a 20 mL syringe filled with 20 mL of cold saline to pierce the left ventricle. Maintain the placement of the needle, and slowly push the syringe plunger to wash the brain with saline. The perfusion will be finished within about 2 min and then take the brain out of the body carefully without damaging the tissue. Dry the tissue on filtrate paper, which should be placed on ice, and then weigh the brain tissue and store at -70 °C and analyzed by LC/MS/MS for quantification. PK parameter values, including, but not necessarily limited to, the maximum plasma concentrations (Cmax), and the area under the plasma concentration vs. time curve (AUC) from time zero to 24-hour (AUC0-24h) were determined using WinNonlin program. Table 13. Systemic Pharmacokinetic Parameters in Sprague-Dawley Rats

[3] = Pharmacokinetic study in dogs; assay type: in vivo; conditions: dog, plasma; Beagle dogs, intravenous, 2 mg/kg, solution
Experimental: (§1) Pharmacokinetic profiles of test articles were evaluated in fasted mouse, Sprague-Dawley rats and Beagle dogs. After dosing, blood samples were collected at each time point. For IV injection group, time points were set at 5, 15, 30 min, and then 1, 2, 4, 8 and 24 hours after dosing. For oral gavage group,#time points were set at 15, 30 min, and then 1, 2, 4, 8, and 24 hours. Blood was collected into appropriately labeled tubes containing K2EDTA as the anticoagulant. Plasma was obtained within 1 hours of blood collection by centrifugation at 8000×g and 4 °C for 6 minutes, and then stored at -20 °C until analyzed by LC/MS/MS for quantification. PK parameter values, including, but not necessarily limited to, the maximum plasma concentrations (Cmax), the time to reach the maximum concentrations (Tmax), and the area under the plasma concentration vs. time curve (AUC) from time zero to 24-hour (AUC0-24h) were determined using WinNonlin program. Table 17. Pharmacokinetic Parameters in Beagle dogs by Intravenous Administration

[4] = Pharmacokinetic study in mice; assay type: in vivo; conditions: mouse, plasma, solution
Experimental: as §1

[5] = test system: Anti-CD40-induced colitis; assay: SCID mice colitis by anti-CD40-driven pharmacodynamics study; assay type: in vivo, C.B17-SCID mice; conditions: for Colon density / Colon length (cm) / Colon weight: Day 5, mean ± SEM, n = 10
Experimental: This study aimed to obtain the pharmacodynamics of the test article in colitis model by Anti-CD40-driven after oral administration. C.B17-SCID mice obtained from the Zhejiang Vital River Laboratory Animal Technology Co., Ltd. Starting on Day -1 and continuing daily through Day 4, mice (n = 10 per group) were dosed with 0 (vehicle control), 15, 45, or 100 mg/kg PO BID compound 7A in vehicle containing 5% DMSO, 65% PEG400, and 30% DDH2O (v/v/v). In addition, on Day 0, 30 minutes after administration, colitis was induced with a single intraperitoneal injection of 200 µL of anti-CD40 mAb (BE0016-2, BioXcell) in DPBS, the Sham group mice were intraperitoneally injected with 200 µL of DPBS.
Each mouse was scored daily for pathological features, including stool consistency, presence of blood stool, and body weight loss. Individual scores were combined to generate the Disease Activity Index (DAI) which was calculated daily for each mouse, the maximum score was 12. On Day 5, all animals were euthanized, colon was collected for measuring colon index (weight, length, and density).

[6] = dog, systemic (plasma), read-out: AUC
[7] = Sprague-Dawley, rat, systemic (plasma)
[8] = Sprague-Dawley, rat, systemic (plasma), read-out: AUC

[2H]C([2H])([2H])O[C@@H](c1ccc2c(c(Nc3cc(NC(=O)C4CC4)ncc3C(=O)OC)nn2C)c1OC)C(F)(F)F [Example 50B, Methyl (S)-6-(cyclopropanecarboxamido)-4-((4-methoxy-1-methyl-5-(2,2,2-trifluoro-1-(methoxy-d3)ethyl)-1H-indazol-3-yl)amino)nicotinate]
AUC ([1]; brain): 1856 ng·h/g | Kp ([1]; dog, brain): 1.36 | AUC [1, 6]: 1370 ng·h/mL | brain exposure in Dogs [1]: good brain exposure

COC(=O)c1cnc(NC(=O)C2CC2)cc1Nc1nn(C)c2ccc([C@H](OC)C(F)(F)F)c(OC)c12 [Example 45B, Methyl (S)-6-(cyclopropanecarboxamido)-4-((4-methoxy-1-methyl-5-(2,2,2-trifluoro-1-methoxyethyl)-1H-indazol-3-yl)amino)nicotinate]
AUC ([1]; brain): 1963 ng·h/g | Kp ([1]; dog, brain): 1.12 | AUC [1, 6]: 1760 ng·h/mL | brain exposure in Dogs [1]: good brain exposure | half-life ([2]; Sprague-Dawley, rat, brain): 2.23 h | Kp ([2]; Sprague-Dawley, rat, brain): 0.96 | half-life [2, 7]: 2.28 h | AUC [2, 8]: 1280 ng·h/mL | AUC ([2]; brain): 1235 ng·h/g | brain exposure in Rats [2]: good brain exposure

[2H]C([2H])([2H])NC(=O)c1cnc(NC(=O)C2CC2)cc1Nc1nn(C)c2ccc([C@H](OC([2H])([2H])[2H])C(F)(F)F)c(OC)c12 [Example 55A, (S)-6-(cyclopropanecarboxamido)-4-((4-methoxy-1-methyl-5-(2,2,2-trifluoro-1-(methoxy-d3)ethyl)-1H-indazol-3-yl)amino)-N-(methyl-d3)nicotinamide]
AUC [3]: 9980 ng·h/mL | Vd [3]: 0.678 L/kg | clearance [3]: 3.52 mL/min/kg | half-life [3]: 3.64 h | AUC ([4]; intravenous, 3 mg/kg): 7600 ng·h/mL | Vd ([4]; intravenous, 3 mg/kg): 0.819 L/kg | clearance ([4]; intravenous, 3 mg/kg): 6.57 mL/min/kg | half-life ([4]; intravenous, 3 mg/kg): 2.57 h | AUC ([4]; oral, 5 mg/kg): 7490 ng·h/mL | Cmax ([4]; oral, 5 mg/kg): 2300 ng/mL | bioavailability ([4]; oral, 5 mg/kg): 59.2% | half-life ([4]; oral, 5 mg/kg): 2.38 h

COC(=O)c1cnc(NC(=O)C2CC2)cc1Nc1nn(C)c2ccc([C@H](O)C(F)(F)F)c(OC)c12 [Example 48A, Methyl (S)-6-(cyclopropanecarboxamido)-4-((4-methoxy-1-methyl-5-(2,2,2-trifluoro-1-hydroxyethyl)-1H-indazol-3-yl)amino)nicotinate]
half-life ([2]; Sprague-Dawley, rat, brain): 2.04 h | Kp ([2]; Sprague-Dawley, rat, brain): 0.19 | half-life [2, 7]: 1.62 h | AUC [2, 8]: 1530 ng·h/mL | AUC ([2]; brain): 288 ng·h/g | brain exposure in Rats [2]: good brain exposure

[2H]C([2H])([2H])NC(=O)c1cnc(NC(=O)C2CC2)cc1Nc1cnn2ccc([C@H](O)C(F)(F)F)c(OC)c12 [Example 7A, (S)-6-(cyclopropanecarboxamido)-4-((4-methoxy-5-(2,2,2-trifluoro-1-hydroxyethyl)pyrazolo[1,5-a]pyridin-3-yl)amino)-N-(methyl-d3)nicotinamide]
effect on Anti-CD40-induced colitis ([5]; 15, 45, or 100 mg/kg PO BID, result in words): significant protective effect | Colon density ([5]; 15mpk PO BID): 46.99 ± 2.71 mg/cm | Colon length (cm) ([5]; 15mpk PO BID): 5.61±0.20 cm | Colon weight ([5]; 15mpk PO BID): 260.20 ± 10.58 mg | Colon density ([5]; 45mpk PO BID): 37.00 ± 1.36 mg/cm | Colon length (cm) ([5]; 45mpk PO BID): 6.34±0.13 cm | Colon weight ([5]; 45mpk PO BID): 234.20 ± 9.04 mg | Colon density ([5]; 100mpk PO BID): 29.23 ± 0.91 mg/cm | Colon length (cm) ([5]; 100mpk PO BID): 7.15±0.15 cm | Colon weight ([5]; 100mpk PO BID): 208.40 ± 5.53 mg | body weight loss ([5]; FIG. 1. A, result in words): reduction | DAI score ([5]; FIG. 1. B, result in words): reduction
